Earlier results as cited in publication PMC7395068, “The evolution of strategies to minimise the risk of human drug-induced liver injury (DILI) in drug discovery and development” (Archives of Toxicology, 2020).
Where two headings read alike, the source gives them in different places.

Assays:
human hepatocytes = conditions: In vitro Assay; ref Xu 2008; cited from earlier work
PHH spheroids = conditions: In vitro Assay; ref Vorrink 2018; cited from earlier work
[1] = cited from earlier work
[2] = cited from earlier work; remark: listed apart in the source
[3] = test system: isolated mouse liver mitochondria; conditions: In vitro Assay; ref Porceddu 2012; cited from earlier work
[4] = cited from earlier work; remark: listed apart in the source
[5] = test system: THLE or HepG2 cells, isolated mitochondria, BSEP; conditions: cited from earlier work
HepG2 cells [6] = conditions: In vitro Assay; ref Persson 2013; cited from earlier work
HepG2 cells [7] = conditions: In vitro Assay; ref O'Brien 2006; cited from earlier work

NC12CC3CC(CC(C3)C1)C2 [amantadine]
Structural based (HCI) (human hepatocytes): -VE | hLiMTs ATP <20 x Cmax (PHH spheroids): -VE | In vivo DILI ([1]; in vivo): -VE | DILI Score (FDA) (1-8) ([2]; in vivo): 3 | in vitro data EC2<=1x Cmax [3]: -VE | DILI +VE (5-8), DILI -VE (-4) ([4]; in vivo): -VE | DILI severity category ([4]; in vivo): Ambiguous DILI-concern

CC(C(=O)O)c1cccc(Oc2ccccc2)c1 (centres unmarked) [fenoprofen]
In vivo DILI ([1]; ref Aleo 2019): +VE | DILI Score (FDA) (1-8) ([2]; ref Chen 2011): 8 | DILI +VE (5-8), DILI -VE (-4) ([4]; ref Chen 2016): +VE | DILI severity category ([4]; ref Chen 2016): vMost-DILI-Concern | Partition Hybrid HRM Score ([5]; In vitro Assay, ref Aleo 2019): +VE | Ro2 Hybrid HRM Score ([5]; In vitro Assay, ref Aleo 2019): +VE

O=C(O)c1ccc(-n2nc(-c3ccccc3O)nc2-c2ccccc2O)cc1 [deferasirox]
DILI Score (FDA) (1-8) ([2]; FDA drug labelling score, scale 1-8, ref Chen 2011): 7 | DILI +VE (5-8), DILI -VE (-4) ([4]; binary in vivo human DILI call, ref Chen 2016): +VE | DILI severity category ([4]; human DILI, LTKB DILIrank category, ref Chen 2016): vMost-DILI-Concern

CN(C)c1ccc(O)c2c1C[C@H]1C[C@H]3[C@H](N(C)C)C(O)=C(C(N)=O)C(=O)[C@@]3(O)C(O)=C1C2=O [minocycline]
Cluser analysis (HepG2 cells [6]): -VE | Structural based (HCI) (HepG2 cells [6]): -VE | In vivo DILI ([1]; in vivo): +VE | Structural based (HCI) (HepG2 cells [7]): +VE | DILI Score (FDA) (1-8) ([2]; in vivo): 2 | DILI +VE (5-8), DILI -VE (-4) ([4]; in vivo): +VE | DILI severity category ([4]; in vivo): vMost-DILI-Concern | Ro2 Hybrid HRM Score [5]: +VE

Sc1ncnc2nc[nH]c12 [mercaptopurine]
Cluser analysis (HepG2 cells [6]): +VE | Structural based (HCI) (HepG2 cells [6]): +VE | Structural based (HCI) (human hepatocytes): -VE | hLiMTs ATP <20 x Cmax (PHH spheroids): +VE (IC20 < 20 × Cmax.tot cut-off) | In vivo DILI ([1]; […]): +VE | In vivo DILI ([1]; ref Aleo 2019): +VE | In vivo DILI ([1]; ref O'Brien 2006): +VE | In vivo DILI ([1]; ref Persson 2013): +VE | In vivo DILI ([1]; ref Porceddu 2012): +VE | In vivo DILI ([1]; ref Vorrink 2018): +VE | In vivo DILI ([1]; ref Xu 2008): +VE | Structural based (HCI) (HepG2 cells [7]): +VE | DILI Score (FDA) (1-8) ([2]; ref Chen 2011): 8 | in vitro data EC2<=1x Cmax [3]: -VE | in vitro data EC20<=2uM [3]: +VE | DILI +VE (5-8), DILI -VE (-4) ([4]; ref Chen 2016): +VE | DILI severity category ([4]; ref Chen 2016): vMost-DILI-Concern | Partition Hybrid HRM Score ([5]; In vitro Assay, ref Aleo 2019): +VE | Ro2 Hybrid HRM Score ([5]; In vitro Assay, ref Aleo 2019): +VE

C[C@]12C=CC(=O)C=C1CC[C@@H]1[C@@H]2[C@@H](O)C[C@@]2(C)[C@H]1CC[C@]2(O)C(=O)CO [prednisolone]
In vivo DILI ([1]; in vivo): -VE | DILI Score (FDA) (1-8) ([2]; in vivo): 3 | DILI +VE (5-8), DILI -VE (-4) ([4]; in vivo): +VE | DILI severity category ([4]; in vivo): vLess-DILI-Concern

CS(=O)(=O)OCCCCOS(C)(=O)=O [busulfan]
In vivo DILI ([1]; […]): +VE | In vivo DILI ([1]; ref Porceddu 2012): +VE | DILI Score (FDA) (1-8) ([2]; ref Chen 2011): 8 | in vitro data EC2<=1x Cmax [3]: +VE | in vitro data EC20<=2uM [3]: -VE | DILI +VE (5-8), DILI -VE (-4) ([4]; ref Chen 2016): +VE | DILI severity category ([4]; ref Chen 2016): vMost-DILI-Concern

CN(C)c1nc(N(C)C)nc(N(C)C)n1 [altretamine]
DILI Score (FDA) (1-8) ([2]; FDA drug labelling score, ref Chen 2011): 2 | DILI severity category ([4]; LTKB DILIrank category, ref Chen 2016): Ambiguous DILI-concern | DILI +VE (5-8), DILI -VE (-4) ([4]; binary DILI call, ref Chen 2016): -VE

CC(C)(S)[C@@H](N)C(=O)O [penicillamine]
DILI Score (FDA) (1-8) ([2]; score by FDA drug labelling, scale 1-8, ref Chen 2011): 3 | DILI +VE (5-8), DILI -VE (-4) ([4]; binary in vivo DILI call given beside the severity category, ref Chen 2016): +VE | DILI severity category ([4]; human DILI concern category (LTKB DILIrank), ref Chen 2016): vLess-DILI-Concern

C=CC[C@@H]1/C=C(\C)C[C@H](C)C[C@H](OC)[C@H]2O[C@@](O)(C(=O)C(=O)N3CCCC[C@H]3C(=O)O[C@H](/C(C)=C/[C@@H]3CC[C@@H](O)[C@H](OC)C3)[C@H](C)[C@@H](O)CC1=O)[C@H](C)C[C@@H]2OC [tacrolimus]
In vivo DILI ([1]; ref Aleo 2019): +VE | DILI Score (FDA) (1-8) ([2]; ref Chen 2011): 5 | DILI +VE (5-8), DILI -VE (-4) ([4]; ref Chen 2016): +VE | DILI severity category ([4]; ref Chen 2016): vLess-DILI-Concern | Partition Hybrid HRM Score ([5]; In vitro Assay, ref Aleo 2019): -VE | Ro2 Hybrid HRM Score ([5]; In vitro Assay, ref Aleo 2019): -VE

CNC(=C[N+](=O)[O-])NCCSCc1csc(CN(C)C)n1 [nizatidine]
In vivo DILI ([1]; ref Aleo 2019): +VE | In vivo DILI ([1]; ref O'Brien 2006): +VE | Structural based (HCI) (HepG2 cells [7]): +VE (lowest HCI endpoint IC50 (or in the absence of dose–response < 100 µM) < 30 × total human plasma exposure levels (Cmax.tot)) | DILI Score (FDA) (1-8) ([2]; ref Chen 2011): 5 | DILI +VE (5-8), DILI -VE (-4) ([4]; ref Chen 2016): +VE | DILI severity category ([4]; ref Chen 2016): vLess-DILI-Concern | Partition Hybrid HRM Score ([5]; In vitro Assay, ref Aleo 2019): -VE | Ro2 Hybrid HRM Score ([5]; In vitro Assay, ref Aleo 2019): -VE
